Assay [1] deals with Tyrosine-protein kinase ABL1 (Homo sapiens), P00519 [F317I]. The experiment in a line: Binding affinity to human non-phosphorylated ABL1 F317I mutant (S229 to K512 residues) expressed in mammalian expression system assessed as residual binding level at 1 uM by Kinomescan method relative to control.
In assay [2] the target is Activin receptor type-2B (Homo sapiens) (UniProt Q13705). The experiment in a line: Binding affinity to wild-type human ACVR2B (H169 to D504 residues) expressed in bacterial expression system assessed as residual binding level at 1 uM by Kinomescan method relative to control.
The target of assay [3] is Aurora kinase B (Homo sapiens) (UniProt Q96GD4). The experiment in a line: Binding affinity to wild-type human partial length AURKB (D25 to A303 residues) expressed in mammalian expression system assessed as residual binding level at 1 uM by Kinomescan method relative to control.
Aurora kinase B (Homo sapiens), sequence (Q96GD4 whole entry, the tested form may be a part): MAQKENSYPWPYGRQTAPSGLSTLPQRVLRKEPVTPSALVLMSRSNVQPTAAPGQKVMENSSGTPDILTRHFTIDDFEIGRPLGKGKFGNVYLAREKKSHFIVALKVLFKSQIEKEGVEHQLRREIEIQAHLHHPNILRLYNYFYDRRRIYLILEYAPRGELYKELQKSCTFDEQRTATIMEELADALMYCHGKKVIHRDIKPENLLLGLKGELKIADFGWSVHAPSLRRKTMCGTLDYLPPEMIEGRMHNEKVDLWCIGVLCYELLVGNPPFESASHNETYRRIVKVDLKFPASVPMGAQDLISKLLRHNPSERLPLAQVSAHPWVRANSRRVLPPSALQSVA
In assay [4] the target is Protein-tyrosine kinase 6 (Homo sapiens) (UniProt Q13882). The experiment in a line: Binding affinity to wild-type human partial length BRK (L166 to T451 residues) expressed in bacterial expression system assessed as residual binding level at 1 uM by Kinomescan method relative to control.
Protein-tyrosine kinase 6 (Homo sapiens), sequence (Q13882 whole entry, looked up, the tested form may be a part): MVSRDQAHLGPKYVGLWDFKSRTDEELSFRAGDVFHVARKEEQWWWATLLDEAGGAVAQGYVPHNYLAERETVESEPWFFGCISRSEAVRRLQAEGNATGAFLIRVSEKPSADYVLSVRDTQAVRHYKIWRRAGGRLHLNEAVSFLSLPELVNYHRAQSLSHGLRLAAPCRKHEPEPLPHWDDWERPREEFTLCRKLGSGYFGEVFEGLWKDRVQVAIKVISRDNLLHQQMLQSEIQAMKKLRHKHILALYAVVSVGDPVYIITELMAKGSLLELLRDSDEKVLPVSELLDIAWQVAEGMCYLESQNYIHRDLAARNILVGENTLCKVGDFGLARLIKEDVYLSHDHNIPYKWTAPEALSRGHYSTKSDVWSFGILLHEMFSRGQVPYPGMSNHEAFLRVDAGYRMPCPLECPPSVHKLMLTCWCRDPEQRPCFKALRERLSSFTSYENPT
Assay [5] concerns the target Cyclin-dependent kinase 11A (Homo sapiens) (UniProt Q9UQ88). The experiment in a line: Binding affinity to wild-type human partial length CDC2L2 (D391 to K730 residues) expressed in bacterial expression system assessed as residual binding level at 1 uM by Kinomescan method relative to control.
Assay [6] deals with Cyclin-dependent kinase 2 (Homo sapiens) (UniProt P24941). The experiment in a line: Binding affinity to wild-type human full length CDK2 (M1 to L298 residues) expressed in bacterial expression system assessed as residual binding level at 1 uM by Kinomescan method relative to control.
For assay [7], the system named is Epidermal growth factor receptor (Homo sapiens), P00533 [L858R,T790M]. The experiment in a line: Binding affinity to human partial length EGFR L858R/T790M double mutant (R669 to V1011 residues) expressed in mammalian expression system assessed as residual binding level at 1 uM by Kinomescan method relative to control.
Assay [8] deals with Ephrin type-A receptor 1 (Homo sapiens) (UniProt P21709). The experiment in a line: Binding affinity to wild-type human partial length EPHA1 (V588 to I913 residues) expressed in bacterial expression system assessed as residual binding level at 1 uM by Kinomescan method relative to control.
Assay [9] has as its target Receptor tyrosine-protein kinase erbB-4 (Homo sapiens) (UniProt Q15303). The experiment in a line: Binding affinity to wild-type human partial length ERBB4 (L690 to K994 residues) expressed in bacterial expression system assessed as residual binding level at 1 uM by Kinomescan method relative to control.
Assay [10] deals with Receptor-type tyrosine-protein kinase FLT3 (Homo sapiens), P36888 [N841I]. The experiment in a line: Binding affinity to human partial length FLT3 N841I mutant (V592 to Y969 residues) expressed in bacterial expression system assessed as residual binding level at 1 uM by Kinomescan method relative to control.
Assay [11] deals with Serine/threonine-protein kinase ICK (Homo sapiens) (UniProt Q9UPZ9). The experiment in a line: Binding affinity to wild-type human partial length ICK (M1 to P314 residues) expressed in mammalian expression system assessed as residual binding level at 1 uM by Kinomescan method relative to control.
Serine/threonine-protein kinase ICK (Homo sapiens), sequence (Q9UPZ9 whole entry, the tested form may be a part): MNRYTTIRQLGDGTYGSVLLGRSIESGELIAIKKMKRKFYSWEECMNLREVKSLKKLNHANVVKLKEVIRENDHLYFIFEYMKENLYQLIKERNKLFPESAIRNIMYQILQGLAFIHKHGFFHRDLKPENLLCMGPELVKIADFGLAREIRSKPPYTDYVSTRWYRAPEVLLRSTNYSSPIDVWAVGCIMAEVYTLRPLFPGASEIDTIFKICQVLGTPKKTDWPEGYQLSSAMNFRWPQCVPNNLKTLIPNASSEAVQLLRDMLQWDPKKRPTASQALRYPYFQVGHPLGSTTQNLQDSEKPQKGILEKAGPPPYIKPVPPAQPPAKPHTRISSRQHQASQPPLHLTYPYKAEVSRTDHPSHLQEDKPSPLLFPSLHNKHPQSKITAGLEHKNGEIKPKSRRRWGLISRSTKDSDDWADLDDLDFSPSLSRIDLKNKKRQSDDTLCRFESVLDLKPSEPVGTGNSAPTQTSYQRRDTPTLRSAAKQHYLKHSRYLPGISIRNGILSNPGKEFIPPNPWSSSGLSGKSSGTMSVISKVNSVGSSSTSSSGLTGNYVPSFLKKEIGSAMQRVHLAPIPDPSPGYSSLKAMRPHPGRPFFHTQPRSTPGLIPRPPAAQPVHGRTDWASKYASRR
Assay [12] concerns the target Insulin receptor-related protein (Homo sapiens) (UniProt P14616). The experiment in a line: Binding affinity to wild-type human partial length INSRR (R950 to E1278 residues) expressed in bacterial expression system assessed as residual binding level at 1 uM by Kinomescan method relative to control.
The target of assay [13] is Leucine-rich repeat serine/threonine-protein kinase 2 (Homo sapiens) (UniProt Q5S007). The experiment in a line: Binding affinity to wild-type human partial length LRRK2 (H970 to E2527 residues) expressed in mammalian expression system assessed as residual binding level at 1 uM by Kinomescan method relative to control.
The target of assay [14] is Mitogen-activated protein kinase kinase kinase 2 (Homo sapiens) (UniProt Q9Y2U5). The experiment in a line: Binding affinity to wild-type human partial length MAP3K2 (S315 to H619 residues) expressed in mammalian expression system assessed as residual binding level at 1 uM by Kinomescan method relative to control.
The target in assay [15] is Serine/threonine-protein kinase Nek7 (Homo sapiens) (UniProt Q8TDX7). The experiment in a line: Binding affinity to wild-type human full length NEK7 (M1 to S302 residues) expressed in bacterial expression system assessed as residual binding level at 1 uM by Kinomescan method relative to control.
The target of assay [16] is Serine/threonine-protein kinase NIM1 (Homo sapiens) (UniProt Q8IY84). The experiment in a line: Binding affinity to wild-type human partial length NIM1 (Q44 to N355 residues) expressed in mammalian expression system assessed as residual binding level at 1 uM by Kinomescan method relative to control.
Serine/threonine-protein kinase NIM1 (Homo sapiens), sequence (Q8IY84 whole entry, the tested form may be a part): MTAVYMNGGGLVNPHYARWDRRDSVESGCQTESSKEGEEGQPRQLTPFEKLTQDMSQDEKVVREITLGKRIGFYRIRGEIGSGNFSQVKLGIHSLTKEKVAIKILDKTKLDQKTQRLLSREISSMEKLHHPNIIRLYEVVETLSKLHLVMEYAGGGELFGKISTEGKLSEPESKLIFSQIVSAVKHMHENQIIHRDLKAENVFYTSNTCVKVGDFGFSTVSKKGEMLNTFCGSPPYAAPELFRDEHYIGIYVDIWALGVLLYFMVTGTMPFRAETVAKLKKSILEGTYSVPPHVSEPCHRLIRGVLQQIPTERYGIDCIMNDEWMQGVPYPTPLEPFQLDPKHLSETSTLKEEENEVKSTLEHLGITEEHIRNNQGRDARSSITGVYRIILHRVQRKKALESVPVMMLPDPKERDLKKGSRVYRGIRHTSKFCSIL
Assay [17] deals with Serine/threonine-protein kinase PAK 4 (Homo sapiens) (UniProt O96013). The experiment in a line: Binding affinity to wild-type human partial length PAK4 (Q144 to R438 residues) expressed in bacterial expression system assessed as residual binding level at 1 uM by Kinomescan method relative to control.
In assay [18] the target is Cyclin-dependent kinase 2 homolog (Plasmodium falciparum (isolate 3D7)) (UniProt P61075). The experiment in a line: Binding affinity to wild-type Plasmodium falciparum full length PK5 (M1 to N288 residues) expressed in mammalian expression system assessed as residual binding level at 1 uM by Kinomescan method relative to control.
For assay [19], the target named is Serine/threonine-protein kinase RIO3 (Homo sapiens) (UniProt O14730). The experiment in a line: Binding affinity to wild-type human full length RIOK3 (M1 to E519 residues) expressed in bacterial expression system assessed as residual binding level at 1 uM by Kinomescan method relative to control.
Serine/threonine-protein kinase RIO3 (Homo sapiens), sequence (O14730 whole entry, the tested form may be a part): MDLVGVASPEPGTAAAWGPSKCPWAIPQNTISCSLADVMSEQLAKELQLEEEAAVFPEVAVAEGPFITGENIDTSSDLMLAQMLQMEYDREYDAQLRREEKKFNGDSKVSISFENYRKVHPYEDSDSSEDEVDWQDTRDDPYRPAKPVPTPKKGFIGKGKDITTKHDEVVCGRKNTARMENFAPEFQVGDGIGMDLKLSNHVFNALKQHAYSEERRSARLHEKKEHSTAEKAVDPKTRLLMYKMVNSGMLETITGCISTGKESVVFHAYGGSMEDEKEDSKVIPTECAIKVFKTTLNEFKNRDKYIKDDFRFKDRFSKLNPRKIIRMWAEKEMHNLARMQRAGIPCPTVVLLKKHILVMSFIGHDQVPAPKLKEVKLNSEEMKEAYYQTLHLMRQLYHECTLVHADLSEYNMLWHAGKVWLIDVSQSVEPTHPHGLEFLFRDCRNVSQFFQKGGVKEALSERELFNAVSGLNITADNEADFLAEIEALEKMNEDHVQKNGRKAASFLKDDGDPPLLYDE
Assay [20] deals with STE20-like serine/threonine-protein kinase (Homo sapiens) (UniProt Q9H2G2). The experiment in a line: Binding affinity to wild-type human partial length SLK (S14 to A307 residues) expressed in bacterial expression system assessed as residual binding level at 1 uM by Kinomescan method relative to control.
In assay [21] the target is BDNF/NT-3 growth factors receptor (Homo sapiens) (UniProt Q16620). The experiment in a line: Binding affinity to wild-type human partial length TRKB (Q547 to G838 residues) expressed in mammalian expression system assessed as residual binding level at 1 uM by Kinomescan method relative to control.
In assay [22] the target is Dual specificity protein kinase TTK (Homo sapiens) (UniProt P33981). The experiment in a line: Binding affinity to wild-type human partial length TTK (N505 to V798 residues) expressed in bacterial expression system assessed as residual binding level at 1 uM by Kinomescan method relative to control.
Assay [23] deals with Tyrosine-protein kinase TXK (Homo sapiens) (UniProt P42681). The experiment in a line: Binding affinity to wild-type human partial length TXK (L238 to W527 residues) expressed in bacterial expression system assessed as residual binding level at 1 uM by Kinomescan method relative to control.
Tyrosine-protein kinase TXK (Homo sapiens), sequence (P42681 whole entry, the tested form may be a part): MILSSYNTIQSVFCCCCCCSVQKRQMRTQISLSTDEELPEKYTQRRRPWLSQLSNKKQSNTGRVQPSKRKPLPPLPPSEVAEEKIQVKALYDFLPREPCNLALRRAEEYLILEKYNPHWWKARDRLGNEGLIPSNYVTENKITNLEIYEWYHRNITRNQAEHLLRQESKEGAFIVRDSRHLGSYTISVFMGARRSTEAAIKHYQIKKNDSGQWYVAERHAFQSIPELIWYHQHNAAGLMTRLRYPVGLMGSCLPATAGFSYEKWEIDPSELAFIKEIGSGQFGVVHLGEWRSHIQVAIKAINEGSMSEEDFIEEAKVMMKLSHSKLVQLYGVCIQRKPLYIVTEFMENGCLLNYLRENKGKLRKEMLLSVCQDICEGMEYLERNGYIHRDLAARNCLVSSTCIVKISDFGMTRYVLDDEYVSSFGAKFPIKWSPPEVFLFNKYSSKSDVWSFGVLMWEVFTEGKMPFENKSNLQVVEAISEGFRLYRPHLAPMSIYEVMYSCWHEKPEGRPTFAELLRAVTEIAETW
Assay [24] has as its target Vascular endothelial growth factor receptor 2 (Homo sapiens) (UniProt P35968). The experiment in a line: Binding affinity to wild-type human partial length VEGFR2 (R787 to P1253 residues) expressed in mammalian expression system assessed as residual binding level at 1 uM by Kinomescan method relative to control.

The structures appear in SMILES notation.

Cyclin-dependent kinase 11A (Homo sapiens), sequence (Q9UQ88 whole entry, the tested form may be a part): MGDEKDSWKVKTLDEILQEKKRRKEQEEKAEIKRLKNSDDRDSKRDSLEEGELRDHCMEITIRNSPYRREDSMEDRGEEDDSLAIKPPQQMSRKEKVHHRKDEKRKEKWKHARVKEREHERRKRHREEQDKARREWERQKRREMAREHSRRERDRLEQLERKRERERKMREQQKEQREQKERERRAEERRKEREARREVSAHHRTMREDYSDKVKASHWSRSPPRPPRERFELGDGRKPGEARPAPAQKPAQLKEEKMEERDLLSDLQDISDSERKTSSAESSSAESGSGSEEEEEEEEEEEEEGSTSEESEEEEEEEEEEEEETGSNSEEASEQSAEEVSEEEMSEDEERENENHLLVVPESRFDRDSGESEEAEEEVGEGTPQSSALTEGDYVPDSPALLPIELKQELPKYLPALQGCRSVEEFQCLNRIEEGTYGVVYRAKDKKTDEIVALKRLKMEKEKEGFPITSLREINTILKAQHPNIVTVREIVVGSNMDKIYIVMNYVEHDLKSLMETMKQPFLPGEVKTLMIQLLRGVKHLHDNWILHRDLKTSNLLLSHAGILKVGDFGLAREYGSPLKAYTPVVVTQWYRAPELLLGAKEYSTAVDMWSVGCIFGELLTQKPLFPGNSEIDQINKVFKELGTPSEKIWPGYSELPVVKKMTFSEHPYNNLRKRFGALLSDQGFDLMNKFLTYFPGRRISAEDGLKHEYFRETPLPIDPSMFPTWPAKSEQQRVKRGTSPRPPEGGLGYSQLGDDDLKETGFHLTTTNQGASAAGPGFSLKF
Receptor tyrosine-protein kinase erbB-4 (Homo sapiens), sequence (Q15303 whole entry, the tested form may be a part): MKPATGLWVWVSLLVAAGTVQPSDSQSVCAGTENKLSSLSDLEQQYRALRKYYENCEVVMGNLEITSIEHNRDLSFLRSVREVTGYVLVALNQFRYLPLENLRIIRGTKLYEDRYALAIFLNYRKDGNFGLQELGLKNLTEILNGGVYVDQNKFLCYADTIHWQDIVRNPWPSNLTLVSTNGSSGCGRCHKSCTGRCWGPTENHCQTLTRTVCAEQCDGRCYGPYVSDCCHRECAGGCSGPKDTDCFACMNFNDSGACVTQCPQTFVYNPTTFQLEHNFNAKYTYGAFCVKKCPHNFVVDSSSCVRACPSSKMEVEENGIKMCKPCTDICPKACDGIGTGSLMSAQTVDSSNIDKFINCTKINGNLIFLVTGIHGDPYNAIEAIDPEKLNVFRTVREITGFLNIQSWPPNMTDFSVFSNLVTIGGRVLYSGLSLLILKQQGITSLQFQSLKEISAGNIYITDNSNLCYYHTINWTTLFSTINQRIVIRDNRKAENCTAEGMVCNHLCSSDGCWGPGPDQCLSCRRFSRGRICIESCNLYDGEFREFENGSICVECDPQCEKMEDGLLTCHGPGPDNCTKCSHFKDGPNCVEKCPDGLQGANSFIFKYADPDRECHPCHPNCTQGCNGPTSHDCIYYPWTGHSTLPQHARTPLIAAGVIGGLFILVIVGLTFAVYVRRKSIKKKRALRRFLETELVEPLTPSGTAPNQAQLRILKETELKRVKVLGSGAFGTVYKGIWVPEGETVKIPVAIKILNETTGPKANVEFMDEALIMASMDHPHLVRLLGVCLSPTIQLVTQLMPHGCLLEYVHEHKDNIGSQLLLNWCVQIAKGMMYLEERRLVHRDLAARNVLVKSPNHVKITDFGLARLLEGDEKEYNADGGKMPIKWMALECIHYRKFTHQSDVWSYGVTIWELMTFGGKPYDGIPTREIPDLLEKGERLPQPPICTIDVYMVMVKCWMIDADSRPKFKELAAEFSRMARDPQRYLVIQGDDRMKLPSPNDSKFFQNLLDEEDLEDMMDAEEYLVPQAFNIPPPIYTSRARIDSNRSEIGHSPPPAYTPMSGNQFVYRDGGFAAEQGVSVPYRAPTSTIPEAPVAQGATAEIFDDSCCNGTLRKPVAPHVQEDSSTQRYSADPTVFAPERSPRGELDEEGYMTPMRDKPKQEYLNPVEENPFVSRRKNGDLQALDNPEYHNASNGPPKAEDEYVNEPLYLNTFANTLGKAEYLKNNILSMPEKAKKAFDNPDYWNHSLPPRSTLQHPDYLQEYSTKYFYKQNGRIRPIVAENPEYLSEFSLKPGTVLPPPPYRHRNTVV

For `CC(C)Nc1sc(C(=O)c2ccc(Cl)s2)c(N)c1C#N`, the Activity amounted to 100% in assay [1]; 92% in assay [2]; 100% in assay [3]; 83% in [4]; 100% in assay [5]; 66% in assay [6]. Also, the Activity came out at 83% in assay [7]; 95% in [8]; 100% in assay [9]; 95% in [10]; 100% in [11]; 76% in [12]. Also, the Activity in assay [13] is 81%; in assay [14], 98%; in [15], 84%; in assay [16], 97%; in assay [17], 88%; in assay [18], 94%. For the same compound, the Activity in [19] turned out to be 38%; in assay [20], 96%; in assay [21], 70%; in assay [22] it was 49%; in assay [23], 87%; in [24] it was 93%.

The values are drawn from ChEMBL document CHEMBL4330132, “5-Keto-3-cyano-2,4-diaminothiophenes as selective maternal embryonic leucine zipper kinase inhibitors” (Bioorg Med Chem Lett, 2019).
